Experimental data reported in US5326882A, “Chemiluminescent 3-(substituted Adamant-2'-Ylidene) 1,2-dioxetanes” (Tropix, Inc., priority 1992, dated 1994).

Columns and labels:
Assay type in all cases: biochemical
[1] = biological target: T1, alkaline phosphatase (calf intestine; Biozyme) (Bos taurus, UniProt P19111); assay: Total dephosphorylation, chemiluminescence decay (Example XIII); settings: 30° C., carbonate/bicarbonate buffer
T1 construct: purchased Biozyme; host or cells: calf intestine
Description: A comparison of the total luminescence emission from AMPPD and from the corresponding 1,2-dioxetanes whose adamant-2'-ylidene groups are monosubstituted with hydroxy (A and B isomers), chloro and bromo groups was made by carrying out total dephosphorylation experiments on each of these compounds.
An aqueous solution of the 1,2-dioxetane (4.0 mm) in 0.05M sodium carbonate/sodium bicarbonate containing 1 mM magnesium chloride was prepared and then equilibrated at 30° C. Ten μl of a 7.64×10M aqueous solution of alkaline phosphatase (calf intestine; Biozyme) was then added, and the chemiluminescence from the resulting solution was recorded using a Turner Model 20E luminometer (Turner Instruments; Sunnyvale, Calif.).
The rates of chemiluminescence decay for each of the five compounds in question, expressed in relative light units (RLU's) per minute, are given in the following table.

alkaline phosphatase [2] = biological target: T2, alkaline phosphatase (Bos taurus, UniProt P19111); assay: Chemiluminescent signal and signal:background with enhancer polymers (Example XVII)
T2 sequence (P19111 20-506 limits assumed): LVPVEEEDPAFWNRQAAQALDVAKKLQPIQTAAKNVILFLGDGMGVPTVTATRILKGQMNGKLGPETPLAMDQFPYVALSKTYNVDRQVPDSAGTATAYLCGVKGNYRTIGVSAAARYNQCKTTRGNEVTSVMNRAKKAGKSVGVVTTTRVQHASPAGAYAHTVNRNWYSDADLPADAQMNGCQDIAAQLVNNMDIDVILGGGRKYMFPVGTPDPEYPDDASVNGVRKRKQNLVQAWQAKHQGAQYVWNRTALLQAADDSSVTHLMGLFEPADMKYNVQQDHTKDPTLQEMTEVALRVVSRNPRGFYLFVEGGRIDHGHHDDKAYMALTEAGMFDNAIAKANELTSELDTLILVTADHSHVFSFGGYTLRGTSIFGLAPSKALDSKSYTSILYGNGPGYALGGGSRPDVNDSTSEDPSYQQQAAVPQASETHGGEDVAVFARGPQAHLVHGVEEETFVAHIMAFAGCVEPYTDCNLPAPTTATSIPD
Description: Four sets of three tubes each, each tube in each set containing 450 μl of a 0.4 mM aqueous solution of one of the four 1,2-dioxetanes being compared in 0.1M diethanolamine containing 1 mM magnesium chloride, 0.02% sodium azide and 0.1% of the enhancer polymer, pH 10.0 (substrate buffer) were prepared and the background signal from each tube measured using a Berthold LB 952T luminometer (Berthold Instruments; Wildbad, Federal Republic of Germany).
Next, 50 μl of an aqueous solution, 2.83×10^-12 M of alkaline phosphatase in 0.1M diethanolamine containing 1 mM magnesium chloride, 0.02% sodium azide, pH 10.0, (final enzyme concentration 2.83×10^-13 M) was added to each tube and the chemiluminescent signals were measured in the luminometer at 5 and 20 minutes. The intensity of the chemiluminescent signals and the signal: background ratios obtained for each of the four 1,2-dioxetanes in the presence of the enhancer polymers are shown in Table III below.
The enhancer polymers used, and the symbols for such polymers used in Table III, were the following: […]

alkaline phosphatase [3] = biological target: T2, alkaline phosphatase; assay: Alkaline phosphatase detection limits, Wilj microtiter plate luminometer (Example XXVI); settings: 23 MINUTE INCUBATION

T1 sequence (P19111 20-506 limits assumed): as above

COC1(c2cccc(OP(=O)(O)O)c2)OOC12C1CC3CC2CC(Cl)(C3)C1 (centres unmarked) [Cl-AMPPD, disodium 3-(4-methoxyspiro-[1,2-dioxetane-3,2'-(5'-chloro)tricyclo[3.3.1.1^3,7]decan]-4-yl) phenyl phosphate]
Total Decay Time [1]: 15 min | Decay Rate I ([1]; RLU's per minute): 1.2 RLU's per minute | Decay Rate II ([1]; RLU's per minute): 5.5 RLU's per minute | S/N (alkaline phosphatase [2]; polymer BAEDM, 5 min): 102.2 | SIGNAL (alkaline phosphatase [2]; polymer BAEDM, 5 min): 9086.9 | S/N (alkaline phosphatase [2]; polymer BAEDM, 20 min): 193.3 | SIGNAL (alkaline phosphatase [2]; polymer BAEDM, 20 min): 17185.4 | S/N (alkaline phosphatase [2]; polymer BAEDM, time 0): 1.0 | SIGNAL (alkaline phosphatase [2]; polymer BAEDM, time 0 (background, before enzyme)): 88.9 | S/N (alkaline phosphatase [2]; polymer DAA TMQ, 5 min): 125.1 | SIGNAL (alkaline phosphatase [2]; polymer DAA TMQ, 5 min): 10328.7 | S/N (alkaline phosphatase [2]; polymer DAA TMQ, 20 min): 159.9 | SIGNAL (alkaline phosphatase [2]; polymer DAA TMQ, 20 min): 13204.2 | S/N (alkaline phosphatase [2]; polymer DAA TMQ, time 0): 1.0 | SIGNAL (alkaline phosphatase [2]; polymer DAA TMQ, time 0 (background, before enzyme)): 82.6 | S/N (alkaline phosphatase [2]; polymer DMQ TEQ, 5 min): 514.6 | SIGNAL (alkaline phosphatase [2]; polymer DMQ TEQ, 5 min): 39712.8 | S/N (alkaline phosphatase [2]; polymer DMQ TEQ, 20 min): 747.2 | SIGNAL (alkaline phosphatase [2]; polymer DMQ TEQ, 20 min): 57658.0 | S/N (alkaline phosphatase [2]; polymer DMQ TEQ, time 0): 1.0 | SIGNAL (alkaline phosphatase [2]; polymer DMQ TEQ, time 0 (background, before enzyme)): 77.2 | SIGNAL (alkaline phosphatase [2]; polymer EMERALD (sapphire and fluorescein), time 0 (background, before enzyme)): 3434.0 | S/N (alkaline phosphatase [2]; polymer EMERALD, 5 min): 583.2 | SIGNAL (alkaline phosphatase [2]; polymer EMERALD, 5 min): 400510.8 | S/N (alkaline phosphatase [2]; polymer EMERALD, 20 min): 964.0 | SIGNAL (alkaline phosphatase [2]; polymer EMERALD, 20 min): 662054.4 | S/N (alkaline phosphatase [2]; polymer EMERALD, time 0): 1.0 | S/N (alkaline phosphatase [2]; polymer MPB, 5 min): 257.8 | SIGNAL (alkaline phosphatase [2]; polymer MPB, 5 min): 22170.5 | S/N (alkaline phosphatase [2]; polymer MPB, 20 min): 306.5 | SIGNAL (alkaline phosphatase [2]; polymer MPB, 20 min): 29133.9 | S/N (alkaline phosphatase [2]; polymer MPB, time 0): 1.0 | SIGNAL (alkaline phosphatase [2]; polymer MPB, time 0 (background, before enzyme)): 86.0 | S/N (alkaline phosphatase [2]; polymer NONE, 5 min): 47.9 | SIGNAL (alkaline phosphatase [2]; polymer NONE, 5 min, enzyme 2.83×10^-13 M): 4083.6 | S/N (alkaline phosphatase [2]; polymer NONE, 20 min): 52.3 | SIGNAL (alkaline phosphatase [2]; polymer NONE, 20 min, enzyme 2.83×10^-13 M): 4460.9 | S/N (alkaline phosphatase [2]; polymer NONE, time 0): 1.0 | SIGNAL (alkaline phosphatase [2]; polymer NONE, time 0 (background, before enzyme)): 85.3 | S/N (alkaline phosphatase [2]; polymer S/TMQ(1:2), 5 min): 46.7 | SIGNAL (alkaline phosphatase [2]; polymer S/TMQ(1:2), 5 min): 3121.4 | S/N (alkaline phosphatase [2]; polymer S/TMQ(1:2), 20 min): 100.2 | SIGNAL (alkaline phosphatase [2]; polymer S/TMQ(1:2), 20 min): 6696.9 | S/N (alkaline phosphatase [2]; polymer S/TMQ(1:2), time 0): 1.0 | SIGNAL (alkaline phosphatase [2]; polymer S/TMQ(1:2), time 0 (background, before enzyme)): 66.8 | S/N (alkaline phosphatase [2]; polymer S/TMQ(1:4), 5 min): 93.9 | SIGNAL (alkaline phosphatase [2]; polymer S/TMQ(1:4), 5 min): 5631.2 | S/N (alkaline phosphatase [2]; polymer S/TMQ(1:4), 20 min): 165.0 | SIGNAL (alkaline phosphatase [2]; polymer S/TMQ(1:4), 20 min): 9957.4 | S/N (alkaline phosphatase [2]; polymer S/TMQ(1:4), time 0): 1.0 | SIGNAL (alkaline phosphatase [2]; polymer S/TMQ(1:4), time 0 (background, before enzyme)): 60.0 | SIGNAL (alkaline phosphatase [2]; polymer SAPPHIRE (BDMQ), time 0 (background, before enzyme)): 296.0 | S/N (alkaline phosphatase [2]; polymer SAPPHIRE, 5 min): 371.6 | SIGNAL (alkaline phosphatase [2]; polymer SAPPHIRE, 5 min): 51584.5 | S/N (alkaline phosphatase [2]; polymer SAPPHIRE, 20 min): 505.4 | SIGNAL (alkaline phosphatase [2]; polymer SAPPHIRE, 20 min): 70161.6 | S/N (alkaline phosphatase [2]; polymer SAPPHIRE, time 0): 1.0 | SIGNAL (alkaline phosphatase [2]; polymer TBQ-FLUOR (TBQ and fluorescein), time 0 (background, before enzyme)): 5882.7 | S/N (alkaline phosphatase [2]; polymer TBQ-FLUOR, 5 min): 839.4 | SIGNAL (alkaline phosphatase [2]; polymer TBQ-FLUOR, 5 min): 987572.0 | S/N (alkaline phosphatase [2]; polymer TBQ-FLUOR, 20 min): 1280.0 | SIGNAL (alkaline phosphatase [2]; polymer TBQ-FLUOR, 20 min): 1505971.2 | S/N (alkaline phosphatase [2]; polymer TBQ-FLUOR, time 0): 1.0 | S/N (alkaline phosphatase [2]; polymer TBQ, 5 min): 1249.6 | SIGNAL (alkaline phosphatase [2]; polymer TBQ, 5 min): 148394.6 | S/N (alkaline phosphatase [2]; polymer TBQ, 20 min): 1763.9 | SIGNAL (alkaline phosphatase [2]; polymer TBQ, 20 min): 209466.8 | S/N (alkaline phosphatase [2]; polymer TBQ, time 0): 1.0 | SIGNAL (alkaline phosphatase [2]; polymer TBQ, time 0 (background, before enzyme)): 118.8 | S/N (alkaline phosphatase [2]; polymer TEQ, 5 min): 397.0 | SIGNAL (alkaline phosphatase [2]; polymer TEQ, 5 min): 26551.0 | S/N (alkaline phosphatase [2]; polymer TEQ, 20 min): 513.5 | SIGNAL (alkaline phosphatase [2]; polymer TEQ, 20 min): 34467.2 | S/N (alkaline phosphatase [2]; polymer TEQ, time 0): 1.0 | SIGNAL (alkaline phosphatase [2]; polymer TEQ, time 0 (background, before enzyme)): 67.1 | S/N (alkaline phosphatase [2]; polymer TMQ, 5 min): 165.0 | SIGNAL (alkaline phosphatase [2]; polymer TMQ, 5 min): 9941.0 | S/N (alkaline phosphatase [2]; polymer TMQ, 20 min): 226.4 | SIGNAL (alkaline phosphatase [2]; polymer TMQ, 20 min): 13640.5 | S/N (alkaline phosphatase [2]; polymer TMQ, time 0): 1.0 | SIGNAL (alkaline phosphatase [2]; polymer TMQ, time 0 (background, before enzyme)): 50.3 | Alkaline phosphatase detection limit (at 2× background) (alkaline phosphatase [3]; SAPPHIRE II): 0.00021 pM | Alkaline phosphatase detection limit (at 2× background) (alkaline phosphatase [3]; SAPPHIRE): 0.000705 pM
